Test results reported in patent publication US20260049077A1, “Neurotrophic Receptor Tyrosine Kinase (NTRK) Inhibitors and Methods Using Same” (Baylor College of Medicine, priority 2022, published 2026).
Several values for one entry are separate records, joined by “and”; a condition that tells them apart may be missing. Equal entries are not always repeated. Entries after “also recorded” stand apart in the source; their conditions may differ. Where two headings read alike, the source gives them in different places. Each block holds one compound with its values, some of them ahead of it.

Assays:
[1] = at 4 h; cited from earlier work
NTRK2 [2] = biological target: T1, NTRK2 (Homo sapiens (Human), UniProt Q16620); test: NTRK2 inhibition (IC50); assay type: biochemical
NTRK2 [3] = biological target: T1, NTRK2; test: Promega NTRK2 NanoBRET live-cell target engagement; assay type: cell-based; details: live cells
Text: FIGS. 6A-6B show the live-cell engagement (FIG. 6A) concept and an NTRK2 example (FIG. 6B). FIG. 6A: Depiction of Promega's NanoBRET target engagement system as per their website. The system involves cell-based competitive displacement of a fluorescent NanoBRET tracer bound reversibly to a NanoLuc fusion protein. Test compounds displace the tracer dependent on their affinity for the target and […] the NanoBRET signal. FIG. 6B: Example of the use of Promega's NTRK2 NanoBRET cell-based system. Each NTRK2 compound (Cpd) was assayed in kinase assays and in cells. Multiple NTRK2 compounds enter the cell and are potent nanomolar inhibitors in these assays (% normalized to no Cpd).
As described elsewhere herein, hit compounds, including but not limited to CDD-2262, and its smaller analog, CDD-2330, were synthesized off-DNA and evaluated for NTRK2 activity.

NTRK1 = NTRK1 (Homo sapiens (Human), UniProt P04629); test: NTRK1 inhibition (IC50); details: read-out: NTRK1 IC50
[4] = Metabolic stability in mouse liver microsomes (MLM)
[5] = Metabolic stability in human liver microsomes (HLM)
NTRK3 = NTRK3 (Homo sapiens (Human), UniProt Q16288); test: NTRK3 inhibition (IC50); details: read-out: NTRK3 IC50
[6] = Brain uptake in mice 24 hours post-administration; assay type: in vivo, mouse; details: mouse, brain, 24 h, read-out: Brain Concentration at 24 h (ng/mg)
endometriotic lesions = test: Endometriosis mouse model, lesion efficacy; assay type: in vivo
Procedure: FIGS. 17A-17F depict the robust efficacy of the inhibitory compounds of the present disclosure as NTRK2 inhibitors for inhibition of endometriotic lesion growth in mice utilizing CDD-3132 as an example. FIG. 17A provides a schematic overview of the experiment performed. FIGS. 17B-17C provide photographs showing excised lesions with administration of a control (FIG. 17B) or CDD-3132 (10 mg/kg/day) (FIG. 17C).
(§1) In one aspect, the present disclosure provides exemplary data relating to the administration of NTRK2 inhibitors in a mouse model of endometriosis (FIG. 14). In certain embodiments, the recipient mouse is administered the NTRK2 inhibitor and/or controls on day 14 after intraperitoneal injection of endometrium of the donor mouse. In certain embodiments, the recipient mouse is sacrificed and quantitatively assessed on day 28.

[7] = Endometriosis mouse model, liver and kidney toxicity (organ weight, ALT, AST); assay type: in vivo; design: ALT (Mean ± SD) / AST (Mean ± SD): unit not given here
Procedure: as §1

[8] = mouse, microsomes
[9] = human, microsomes
NTRK2 [10] = biological target: T1, NTRK2; test: NTRK2 apparent inhibition constant (Ki app)
FLT3-ITD = details: cited from earlier work
human kinome = test: KINOMEscan kinome-wide binding profiling; details: 1 μM
Text: (§2) FIG. 7B: Using the ThermoFisher Z'-LYTE™ screening assay, kinase specificity for the NTRK subfamily was observed.
(§3) To broadly assess the kinome-wide selectivity of CDD-2330, a KINOMEscan profiling platform was employed (FIG. 7A).

NTRKs = test: ThermoFisher Z'-LYTE kinase assay, NTRKs; assay type: biochemical; details: Z'-LYTE dose response; range over NTRKs
Text: as §2, §3

MAP3K19 = MAP3K19 (Homo sapiens (Human), UniProt Q56UN5); test: ThermoFisher Z'-LYTE kinase assay, MAP3K19; assay type: biochemical
[11] = Metabolic stability in mouse and human liver microsomes; assay type: in vitro ADME; details: mouse and human liver microsomes in vitro
[12] = Mouse brain and testis distribution; assay type: in vivo; details: ip, mice, intraperitoneal
Procedure: FIGS. 9A-9B show mouse brain (FIG. 9A) and testis (FIG. 9B) distribution of CDD-2330. Mice (n=3 per timepoint) were treated intraperitoneally with CDD-2330 and brain, testis, and blood samples were collected. Samples were processed and analyzed by LC-MS.

[13] = Pharmacokinetics of orally administered CDD-2330 in mice; assay type: in vivo, mouse; details: oral 50 mg/kg
Procedure: CDD-2330 was dissolved in 10% DMSO+0.5% methyl cellulose at 5 mg/mL. CDD-2330 was orally delivered at 50 mg/kg to mice (n=4). Blood samples were collected at 0, 0.25, 0.5, 1, 2, 4, 6, 8, and 24 h. Samples were analyzed by LC-MS, and the concentration of CDD-2330 was quantified with a standard curve (range: 0-10 μM). CDD-3031 was administered by oral gavage at a dose of 50 mg/kg. Blood samples were collected at […], 0.167, 0.25, 0.5, 1, 2, 4, 6, 8, and 24 h.

[14] = Plasma ALT and AST in mice after a high dose (50 mg/kg); assay type: in vivo, mouse
[15] = in vivo; cited from earlier work
[16] = test system: PTGS2 mRNA in endometriotic stromal cells; test: PGE2-stimulated PTGS2 gene expression in endometriotic stromal cells (RT-PCR); assay type: cell-based; details: 1 μM PGE2, 6-hour period
Text: FIG. 12A: estrogen, secreted by the ovary and endometriotic lesions, signals to macrophages and nerve fibers, including production of BDNF/NT-3 and pro-inflammatory cytokines, respectively. […] Activated CREB acts on the PTGS2 promoter, creating a positive feedback mechanism that results in elevated inflammation. PGE2 signaling also stimulates PKA/PKC signaling to induce the production of BDNF and NTF3 expression. […] Gene expression of PTGS2 was quantified using quantitative real time PCR (RT-PCR).
Thus, the present disclosure provides evidence that administration of CDD-2330 results in suppression of markers associated with inflammation, and accordingly, is suitable for the treatment of endometriosis.

[17] = i.p. dose of 10 mg/kg/day for 14 days
[18] = plasma, 48 h after oral 50 mg/kg CDD-2330, individual mice
[19] = group average, CDD-2737 at 10 mg/kg/day for 14 days, n-butyrate 100 mM
[20] = individual mice, CDD-2737 at 10 mg/kg/day for 14 days, n-butyrate 100 mM

Sequence of NTRK1 (P04629 33-796): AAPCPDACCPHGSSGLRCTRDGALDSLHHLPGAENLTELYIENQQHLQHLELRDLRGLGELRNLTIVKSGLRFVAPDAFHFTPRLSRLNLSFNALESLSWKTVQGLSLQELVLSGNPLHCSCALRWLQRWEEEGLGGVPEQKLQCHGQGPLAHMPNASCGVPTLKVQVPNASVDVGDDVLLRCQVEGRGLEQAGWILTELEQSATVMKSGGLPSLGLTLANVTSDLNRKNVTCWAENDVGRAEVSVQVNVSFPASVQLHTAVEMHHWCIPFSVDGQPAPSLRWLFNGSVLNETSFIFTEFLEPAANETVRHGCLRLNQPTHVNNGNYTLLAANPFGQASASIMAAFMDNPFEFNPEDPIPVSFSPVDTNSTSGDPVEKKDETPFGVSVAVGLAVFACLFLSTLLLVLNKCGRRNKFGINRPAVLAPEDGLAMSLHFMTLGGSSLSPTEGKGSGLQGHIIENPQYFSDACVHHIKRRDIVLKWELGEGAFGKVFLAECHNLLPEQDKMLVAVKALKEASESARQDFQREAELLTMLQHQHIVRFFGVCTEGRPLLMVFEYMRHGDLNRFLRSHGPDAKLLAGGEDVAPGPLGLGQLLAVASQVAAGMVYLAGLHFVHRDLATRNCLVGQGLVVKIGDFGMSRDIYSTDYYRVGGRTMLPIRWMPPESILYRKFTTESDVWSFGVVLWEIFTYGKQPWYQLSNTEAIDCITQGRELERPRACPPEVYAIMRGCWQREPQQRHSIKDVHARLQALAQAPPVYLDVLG
T1 sequence (Q16620 32-822): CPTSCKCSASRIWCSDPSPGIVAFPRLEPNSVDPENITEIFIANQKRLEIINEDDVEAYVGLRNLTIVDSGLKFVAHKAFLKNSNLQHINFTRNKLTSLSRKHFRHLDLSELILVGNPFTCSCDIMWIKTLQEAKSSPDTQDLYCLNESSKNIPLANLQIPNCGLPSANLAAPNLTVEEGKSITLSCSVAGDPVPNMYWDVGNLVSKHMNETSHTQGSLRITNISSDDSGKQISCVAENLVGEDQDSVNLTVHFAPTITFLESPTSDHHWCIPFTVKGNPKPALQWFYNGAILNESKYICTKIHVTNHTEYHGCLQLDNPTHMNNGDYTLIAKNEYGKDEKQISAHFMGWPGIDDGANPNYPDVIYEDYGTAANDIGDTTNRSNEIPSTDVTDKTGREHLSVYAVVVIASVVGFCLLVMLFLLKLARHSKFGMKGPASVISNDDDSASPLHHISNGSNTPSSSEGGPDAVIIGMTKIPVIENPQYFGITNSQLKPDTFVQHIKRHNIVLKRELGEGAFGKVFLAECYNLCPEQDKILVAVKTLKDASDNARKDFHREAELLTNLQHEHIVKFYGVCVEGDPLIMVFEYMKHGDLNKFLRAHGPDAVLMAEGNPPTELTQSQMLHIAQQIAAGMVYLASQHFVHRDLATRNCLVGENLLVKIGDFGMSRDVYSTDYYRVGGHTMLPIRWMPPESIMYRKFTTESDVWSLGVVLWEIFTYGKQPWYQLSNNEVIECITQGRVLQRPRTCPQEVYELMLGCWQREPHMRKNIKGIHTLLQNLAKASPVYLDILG
Sequence of NTRK3 (Q16288 32-839): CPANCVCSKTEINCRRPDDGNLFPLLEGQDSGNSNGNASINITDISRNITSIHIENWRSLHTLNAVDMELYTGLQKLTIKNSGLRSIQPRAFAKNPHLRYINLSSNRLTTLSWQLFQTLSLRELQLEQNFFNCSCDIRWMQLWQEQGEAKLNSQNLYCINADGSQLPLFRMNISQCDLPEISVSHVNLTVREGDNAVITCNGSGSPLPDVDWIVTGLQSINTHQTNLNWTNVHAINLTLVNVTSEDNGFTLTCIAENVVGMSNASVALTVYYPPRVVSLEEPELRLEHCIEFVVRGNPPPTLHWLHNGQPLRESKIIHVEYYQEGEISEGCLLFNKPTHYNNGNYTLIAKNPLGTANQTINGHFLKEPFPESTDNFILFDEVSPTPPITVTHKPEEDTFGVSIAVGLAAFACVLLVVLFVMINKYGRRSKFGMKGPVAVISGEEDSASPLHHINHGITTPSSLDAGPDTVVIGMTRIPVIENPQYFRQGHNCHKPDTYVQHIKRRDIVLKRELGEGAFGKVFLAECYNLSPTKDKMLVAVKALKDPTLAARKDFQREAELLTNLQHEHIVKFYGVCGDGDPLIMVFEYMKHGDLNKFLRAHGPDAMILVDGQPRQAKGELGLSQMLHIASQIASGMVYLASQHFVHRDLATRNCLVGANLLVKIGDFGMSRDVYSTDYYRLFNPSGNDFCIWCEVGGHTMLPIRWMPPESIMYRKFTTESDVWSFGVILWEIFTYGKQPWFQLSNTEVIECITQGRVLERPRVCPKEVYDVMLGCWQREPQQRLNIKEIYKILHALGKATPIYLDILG
Sequence of MAP3K19 (Q56UN5 whole entry): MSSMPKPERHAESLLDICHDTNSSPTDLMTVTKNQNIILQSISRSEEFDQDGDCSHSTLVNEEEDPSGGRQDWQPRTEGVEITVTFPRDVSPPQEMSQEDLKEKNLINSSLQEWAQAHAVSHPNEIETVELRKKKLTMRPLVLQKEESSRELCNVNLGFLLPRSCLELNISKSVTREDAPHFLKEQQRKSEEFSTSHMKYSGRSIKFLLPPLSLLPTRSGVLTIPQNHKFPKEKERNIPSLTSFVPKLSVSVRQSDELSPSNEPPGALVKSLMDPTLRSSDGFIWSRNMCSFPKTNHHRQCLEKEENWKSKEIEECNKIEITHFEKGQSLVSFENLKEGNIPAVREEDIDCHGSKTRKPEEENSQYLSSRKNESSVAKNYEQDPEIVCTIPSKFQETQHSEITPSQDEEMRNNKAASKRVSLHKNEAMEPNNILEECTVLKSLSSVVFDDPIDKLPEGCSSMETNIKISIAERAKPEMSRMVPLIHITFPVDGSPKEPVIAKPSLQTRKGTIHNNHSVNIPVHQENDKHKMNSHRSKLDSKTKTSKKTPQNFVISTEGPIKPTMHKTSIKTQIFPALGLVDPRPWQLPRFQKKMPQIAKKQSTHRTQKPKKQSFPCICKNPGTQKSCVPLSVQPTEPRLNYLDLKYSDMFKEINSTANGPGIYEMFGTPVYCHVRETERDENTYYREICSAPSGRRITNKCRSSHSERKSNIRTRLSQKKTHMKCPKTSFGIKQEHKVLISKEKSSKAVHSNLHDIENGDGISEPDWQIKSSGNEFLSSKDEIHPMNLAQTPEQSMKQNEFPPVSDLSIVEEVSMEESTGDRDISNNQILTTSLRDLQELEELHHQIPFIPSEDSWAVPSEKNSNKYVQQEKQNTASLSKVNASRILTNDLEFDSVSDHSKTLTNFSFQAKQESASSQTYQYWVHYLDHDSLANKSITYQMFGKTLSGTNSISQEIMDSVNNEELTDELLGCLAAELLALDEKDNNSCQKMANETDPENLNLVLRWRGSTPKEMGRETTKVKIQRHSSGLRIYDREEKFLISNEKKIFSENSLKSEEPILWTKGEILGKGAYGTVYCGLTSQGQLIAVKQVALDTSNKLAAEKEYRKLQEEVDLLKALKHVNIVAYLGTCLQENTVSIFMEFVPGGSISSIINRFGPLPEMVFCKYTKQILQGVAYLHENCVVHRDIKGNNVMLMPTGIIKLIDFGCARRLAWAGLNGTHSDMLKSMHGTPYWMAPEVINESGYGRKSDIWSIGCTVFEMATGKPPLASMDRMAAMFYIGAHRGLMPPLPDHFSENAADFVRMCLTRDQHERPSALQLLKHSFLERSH

- IC50 (NTRK2 [2]): 3.7 nM
- IC50 (NTRK1): 31 nM
- half-life [4]: 0.337 h
- half-life [5]: 0.718 h
Compound: CC(C)N(Cc1ccn2nccc2c1)C(=O)Nc1ccc(OC(F)(F)F)cc1 [CDD-2299, 1-isopropyl-1-(pyrazolo[1,5-a]pyridin-5-ylmethyl)-3-(4-(trifluoromethoxy)phenyl)urea]
- cell penetration and effect in NanoBRET assays (NTRK2 [3]): able to penetrate cell membranes to induce an effect

- IC50 (NTRK2 [2]): 6.1 nM
- IC50 (NTRK1): 34 nM
- IC50 (NTRK3): 13.7 nM
- half-life [4]: 0.105 h
- half-life [5]: 0.472 h
Compound: CC(C)c1ccc(OCC(=O)N(Cc2ccn3ncc(C(N)=O)c3c2)C(C)C)cc1 [CDD-3032, 5-((N-isopropyl-2-(4-isopropylphenoxy)acetamido)methyl)pyrazolo[1,5-a]pyridine-3-carboxamide]
- cell penetration and effect in NanoBRET assays (NTRK2 [3]): able to penetrate cell membranes to induce an effect

- IC50 (NTRK2 [2]): 3.6 nM
- concentration at 24 h [6]: 140 ng/g
- IC50 (NTRK1): 3.8 nM
- IC50 (NTRK3): 6.6 nM
- half-life [4]: 4.83 h
- half-life [5]: 1.6 h
Compound: CC(C)N(Cc1ccn2ncc(C(N)=O)c2c1)C(=S)Nc1ccc(OC(F)(F)F)cc1 [CDD-3119, 5-((1-isopropyl-3-(4-(trifluoromethoxy)phenyl)thioureido)methyl)pyrazolo[1,5-a]pyridine-3-carboxamide]
- number, volume and mass of lesions (endometriotic lesions; 10 mg/kg, compared to vehicle control): reduction of lesions, volume of lesions, and mass of lesions
- endometriotic lesion growth (endometriotic lesions; 10 mg/kg, excised lesions): inhibiting endometriotic lesion growth
- effect on liver and/or kidney weight and/or serum elevation of ALT and AST ([7]; 10 mg/kg, mice with endometriotic lesions): little to no effect
- ALT (Mean ± SD) [7, 17]: 21.3 ± 4.9
- AST (Mean ± SD) [7, 17]: 53.2 ± 18.5
- impact on liver and kidney weights ([7]; mice treated for 14 days): no significant impact

- IC50 (NTRK2 [2]): 43 nM
- Ki (NTRK2 [10]): 34 ± 10 nM
Compound: CCOc1ccc(CC(=O)N(Cc2ccn3nccc3c2)[C@H](C)c2ccccc2)cc1 [CDD-2222, (R)-2-(4-ethoxyphenyl)-N-(1-phenylethyl)-N-(pyrazolo[1,5-a]pyridin-5-ylmethyl)acetamide]

- IC50 (NTRK2 [2]): 32 nM
- half-life [11]: > 7 h
- Ki (NTRK2 [10]): 17 ± 10 nM
- half-life [4]: 8.87 h
- half-life [5]: 7.37 h
Compound: O=C(O)c1cnn2ccc(CN(C(=O)Nc3ccc(OC(F)(F)F)cc3)C3CCC3)cc12 [CDD-2262, 5-((1-cyclobutyl-3-(4-(trifluoromethoxy)phenyl)ureido)methyl)pyrazolo[1,5-a]pyridine-3-carboxylic acid]
- cell penetration and effect in NanoBRET assays (NTRK2 [3]): able to penetrate cell membranes to induce an effect
- concentration at which PTGS2 mRNA is statistically suppressed [16]: > 100 nM

- IC50 (NTRK2 [2]): 2.3 nM
- concentration at 24 h [6]: 40 ng/g
- IC50 (NTRK1): 6.1 nM
- IC50 (NTRK3): 3.1 nM
- half-life [4]: 2.6 h
- half-life [5]: 3.17 h
Compound: CC(C)N(Cc1ccn2ncc(C(N)=O)c2c1)C(=O)Nc1ccc(OC(F)(F)F)cc1 [CDD-2737, 5-((1-isopropyl-3-(4-(trifluoromethoxy)phenyl)ureido)methyl)pyrazolo[1,5-a]pyridine-3-carboxamide]
- cell penetration and effect in NanoBRET assays (NTRK2 [3]): able to penetrate cell membranes to induce an effect
- number and size of lesions (endometriotic lesions; endometriosis mouse model, compared to controls): decreases the number of lesions and the size of lesions; also recorded: decreased number of lesions and lesions of diminished size
- gross and serum effects on the liver and kidney ([7]; endometriosis mouse model): no gross or serum effects; also recorded: no gross effects
- ALT (U/L), Average [7, 19]: 15.2 U/L
- AST (U/L), Average [7, 19]: 31.3 U/L
- ALT (U/L) [7, 20]: 13.79 U/L and 13.61 U/L and 10.25 U/L and 23.16 U/L
- AST (U/L) [7, 20]: 28.11 U/L and 47.21 U/L and 27.58 U/L and 22.28 U/L

More lines, now with the values behind:

Compound: CNCC[C@@H](Oc1ccccc1C)c1ccccc1 [atomoxetine]
- Brain:Plasma (comparator antidepressant drug) [1]: 20

Compound: 1-cyclobutyl-1-(pyrazolo[1,5-a]pyridin-5-ylmethyl)-3-(4-(trifluoromethoxy)phenyl)urea [CDD-2219]
- IC50 (NTRK2 [2]): 13 nM
- cell penetration and effect in NanoBRET assays (NTRK2 [3]): able to penetrate cell membranes to induce an effect
- MLM t1/2 [8]: 0.47 h
- HLM t1/2 [9]: 0.913 h
- Ki (NTRK2 [10]; read-out: NTRK2 Ki^app, apparent inhibition constant): 21 ± 7 nM

Compound: FC(F)(F)c1ccc(CNc2ccc(Cc3c[nH]c4ncc(Cl)cc34)cn2)cn1 [Pexidartinib]
- IC50 (FLT3-ITD): 9 nM

Compound: CC(C)N(Cc1ccn2ncc(C(=O)O)c2c1)C(=O)Nc1ccc(OC(F)(F)F)cc1 [CDD-2330, 5-((1-isopropyl-3-(4-(trifluoromethoxy)phenyl)ureido)methyl)pyrazolo[1,5-a]pyridine-3-carboxylic acid]
- IC50 (NTRK2 [2]): 3.5 nM
- cell penetration and effect in NanoBRET assays (NTRK2 [3]): able to penetrate cell membranes to induce an effect
- kinome-wide selectivity (KINOMEscan) (human kinome): highly specific for NTRK1, NTRK2, and NTRK3; also recorded: high specificity for NTRKs, with MAP3K19 as the only possible off-target
- IC50 (NTRKs): 1.2 to 3.8 nM
- selectivity over MAP3K19 (MAP3K19; NTRKs vs MAP3K19, Z'-LYTE): > 100 fold
- IC50 (MAP3K19; Z'-LYTE dose response): 401 nM
- half-life [11]: > 25 h
- Kp at 4 h ([12]; brain, read-out: Brain:Plasma): 0.31
- Kp at 4 h ([12]; testis, read-out: Testis:Plasma): 0.31
- blood level after oral administration [13]: rapid disappearance in the blood
- potential liver and other tissue toxicity ([14]; high dose, 50 mg/kg): minimal effects
- ALT [14, 18]: 13.97 U/L and 26.17 U/L and 13.44 U/L and 18.74 U/L
- AST [14, 18]: 19.45 U/L and 18.92 U/L and 26.17 U/L and 13.26 U/L
- IC50 (NTRK1): 3.8 nM
- IC50 (NTRK3): 1.2 nM
- half-life [4]: 27.2 h
- half-life [5]: 25.6 h

Compound: O=C(Nc1cnn2ccc(N3CCC[C@@H]3c3cc(F)ccc3F)nc12)N1CC[C@H](O)C1 [larotrectinib]
- blood-brain barrier crossing [15]: cross the blood-brain barrier

Compound: CN1CCN(c2ccc(C(=O)Nc3n[nH]c4ccc(Cc5cc(F)cc(F)c5)cc34)c(NC3CCOCC3)c2)CC1 [Entrectinib, N-(5-(3,5-difluorobenzyl)-1H-indazol-3-yl)-4-(4-methylpiperazin-1-yl)-2-((tetrahydro-2H-pyran-4-yl)amino)benzamide]
- blood-brain barrier crossing [15]: cross the blood-brain barrier
